The values below are quoted from earlier work in patent US6470305B1, “Chemical analysis by morphological similarity” (priority 1998, dated 2002).

The structures appear in SMILES notation. pIC50: −log10 of the molar value.

The target of the data set is CDK2 (Homo sapiens, UniProt P24941). The settings on record: weak inhibitor; value from Kim et al., Prog Cell Cycle Res (1996); read-out: IC50 versus CDK2.

Take `CC(C)=CCNc1ncnc2nc[nH]c12` [IPA, isopentenyl adenine]: the pIC50 was 4.30.
